# Target: T1, MAGL (Homo sapiens, UniProt Q99685)
# T1 sequence (Q99685 1-303): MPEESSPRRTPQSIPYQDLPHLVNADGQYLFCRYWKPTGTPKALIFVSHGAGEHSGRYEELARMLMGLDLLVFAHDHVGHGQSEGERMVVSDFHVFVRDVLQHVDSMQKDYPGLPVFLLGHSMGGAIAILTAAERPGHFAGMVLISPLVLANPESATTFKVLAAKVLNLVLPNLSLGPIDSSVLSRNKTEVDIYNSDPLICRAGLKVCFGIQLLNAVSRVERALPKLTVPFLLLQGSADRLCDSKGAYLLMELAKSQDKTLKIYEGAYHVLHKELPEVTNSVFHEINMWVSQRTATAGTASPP
# Assay: MAGL inhibition, 2-AG assay (hydrolysis of 2-arachidonoylglycerol, arachidonic acid by mass spectrometry)
# Assay type: biochemical
# Settings: 2-AG assay (footnote [b])
# Procedure: Alternatively, compounds were profiled for MAGL inhibitory activity by determining the enzymatic activity by following the hydrolysis of the natural substrate 2-arachidonoylglycerol (2-AG) resulting in arachidonic acid, which can be followed by mass spectrometry. This assay is hereinafter abbreviated “2-AG assay”.
# The 2-AG assay was carried out in 384 well assay plates (PP, Greiner Cat #784201) in a total volume of 20 μL. Compound dilutions were made in 100% DMSO (VWR Chemicals 23500.297) in a polypropylene plate in 3-fold dilution steps to give a final concentration range in the assay from 12.5 μM to […]. 0.25 μL compound dilutions (100% DMSO) were added to 9 μL MAGL in assay buffer (50 mM TRIS (GIBCO, 15567-027), 1 mM EDTA (Fluka, 03690-100 mL), 0.01% (v/v) Tween. After shaking, the plate was incubated for 15 min at RT. To start the reaction, 10 μL 2-arachidonoylglycerol in assay buffer was added. The final concentrations in the assay was […] and 8 μM 2-arachidonoylglyerol. After shaking and 30 min incubation at RT, the reaction was quenched by the addition of 40 μL of ACN containing 4 μM of d8-arachidonic acid. The amount of arachidonic acid was traced by an online SPE system (Agilent Rapidfire) coupled to a triple quadrupole mass spectrometer (Agilent 6460). A C18 SPE cartridge (G9205A) was used in an ACN/water liquid setup. The mass spectrometer was operated in negative electrospray mode following the mass transitions 303.1→259.1 for arachidonic acid and 311.1→267.0 for d8-arachidonic acid. The activity of the compounds was calculated based on the ratio of intensities [arachidonic acid/d8-arachidonic acid].
row,SMILES,IC50 [µM]
1,"O=C1CO[C@H]2CCN(C(=O)N3CC(C(OCC(F)(F)F)c4ccc(F)cc4)C3)C[C@H]2N1 (single isomer, unassigned) [Example 106, (4aR,8aS)-6-[3-(R or S)-[(4-Fluorophenyl)-(2,2,2-trifluoroethoxy)methyl]azetidine-1-carbonyl]-4,4a,5,7,8,8a-hexahydropyrido[4,3-b][1,4]oxazin-3-one]",0.318
2,"O=C1CO[C@H]2CCN(C(=O)N3CCC(C(c4ccccc4)c4cccc(OCCF)c4)CC3)C[C@H]2N1 (single isomer, unassigned) [Example 108, (4aR,8aS)-6-(4-((R or S)-(3-(2-Fluoroethoxy)phenyl)(phenyl)methyl)piperidine-1-carbonyl)hexahydro-2H-pyrido[4,3-b][1,4]oxazin-3(4H)-one]",0.0004
3,"O=C1CO[C@H]2CCN(C(=O)N3CCC(C(c4ccc(F)cc4)c4ccc(OCCF)cc4)CC3)C[C@H]2N1 (single isomer, unassigned) [Example 109, (4aR,8aS)-6-(4-((S or R)-(4-(2-Fluoroethoxy)phenyl)(4-fluorophenyl)methyl)piperidine-1-carbonyl)hexahydro-2H-pyrido[4,3-b][1,4]oxazin-3(4H)-one]",0.0004
4,"CC(OC1CN(C(=O)N2CC[C@@H]3OCC(=O)N[C@@H]3C2)C1)c1ccc(C(F)(F)F)cc1 (single isomer, unassigned) [Example 114, (4aR,8aS)-6-(3-(1-(R or S)-(4-(Trifluoromethyl)phenyl)ethoxy)azetidine-1-carbonyl)hexahydro-2H-pyrido[4,3-b][1,4]oxazin-3(4H)-one]",0.049
5,"CC(OC1CN(C(=O)N2CC[C@@H]3OCC(=O)N[C@@H]3C2)C1)c1ccc(C(F)(F)F)cc1 (single isomer, unassigned) [Example 115, (4aR,8aS)-6-(3-(1-(S or R)-4-(Trifluoromethyl)phenyl)ethoxy)azetidine-1-carbonyl)hexahydro-2H-pyrido[4,3-b][1,4]oxazin-3(4H)-one]",0.079
6,"CC(OC1CN(C(=O)N2CC[C@@H]3OCC(=O)N[C@@H]3C2)C1)c1ccc(F)cc1Cl (single isomer, unassigned) [Example 116, (4aR,8aS)-6-[3-(S or R)-]1-(2-Chloro-4-fluoro-phenyl)ethoxy]azetidine-1-carbonyl]-4,4a,5,7,8,8a-hexahydropyrido[4,3-b][1,4]oxazin-3-one]",0.092
7,"CC(OC1CN(C(=O)N2CC[C@@H]3OCC(=O)N[C@@H]3C2)C1)c1ccc(F)cc1Cl (single isomer, unassigned) [Example 117, (4aR,8aS)-6-[3-(R or S)-[1-(2-Chloro-4-fluoro-phenyl)ethoxy]azetidine-1-carbonyl]-4,4a,5,7,8,8a-hexahydropyrido[4,3-b][1,4]oxazin-3-one]",0.03
8,"COc1ccc(C(c2ccccn2)C2CCN(C(=O)N3CC[C@@H]4OCC(=O)N[C@@H]4C3)CC2)cc1OC (single isomer, unassigned) [Example 118, (4aR,8aS)-6-[4-[(R or S)-(3,4-dimethoxyphenyl)-(2-pyridyl)methyl]piperidine-1-carbonyl]-4,4a,5,7,8,8a-hexahydropyrido[4,3-b][1,4]oxazin-3-one]",0.025
9,"COc1ccc(C(c2ccccn2)C2CCN(C(=O)N3CC[C@@H]4OCC(=O)N[C@@H]4C3)CC2)cc1OC (single isomer, unassigned) [Example 119, (4aR,8aS)-6-[4-[(S or R)-(3,4-dimethoxyphenyl)-(2-pyridyl)methyl]piperidine-1-carbonyl]-4,4a,5,7,8,8a-hexahydropyrido[4,3-b][1,4]oxazin-3-one]",0.017
10,"COc1ccc(C(c2cccnc2)C2CCN(C(=O)N3CC[C@@H]4OCC(=O)N[C@@H]4C3)CC2)cc1OC (single isomer, unassigned) [Example 135, (4aR,8aS)-6-[4-[(R or S)-(3,4-Dimethoxyphenyl)-(3-pyridyl)methyl]piperidine-1-carbonyl]-4,4a,5,7,8,8a-hexahydropyrido[4,3-b][1,4]oxazin-3-one]",0.007
11,"COc1ccc(C(c2cccnc2)C2CCN(C(=O)N3CC[C@@H]4OCC(=O)N[C@@H]4C3)CC2)cc1OC (single isomer, unassigned) [Example 136, (4aR,8aS)-6-[4-[(S or R)-(3,4-dimethoxyphenyl)-(3-pyridyl)methyl]piperidine-1-carbonyl]-4,4a,5,7,8,8a-hexahydropyrido[4,3-b][1,4]oxazin-3-one]",0.014
12,"COc1ccc(C(c2ccncc2)C2CCN(C(=O)N3CC[C@@H]4OCC(=O)N[C@@H]4C3)CC2)cc1OC (single isomer, unassigned) [Example 149, (4aR,8aS)-6-[4-[(R or S)-(3,4-Dimethoxyphenyl)-(4-pyridyl)methyl]piperidine-1-carbonyl]-4,4a,5,7,8,8a-hexahydropyrido[4,3-b][1,4]oxazin-3-one]",0.051
13,"COc1ccc(C(c2ccncc2)C2CCN(C(=O)N3CC[C@@H]4OCC(=O)N[C@@H]4C3)CC2)cc1OC (single isomer, unassigned) [Example 150, (4aR,8aS)-6-[4-[(S or R)-(3,4-Dimethoxyphenyl)-(4-pyridyl)methyl]piperidine-1-carbonyl]-4,4a,5,7,8,8a-hexahydropyrido[4,3-b][1,4]oxazin-3-one]",0.008
14,"CC(OC1CN(c2ccc(C3CN(C(=O)N4CC[C@@H]5OCC(=O)N[C@@H]5C4)C3)cc2)C1)C(F)(F)F (single isomer, unassigned) [Example 160, (4aR,8aS)-6-[3-[4-[3-[(1S or 1R)-2,2,2-Trifluoro-1-methyl-ethoxy]azetidin-1-yl]phenyl]azetidine-1-carbonyl]-4,4a,5,7,8,8a-hexahydropyrido[4,3-b][1,4]oxazin-3-one]",0.001
15,"CC(OC1CN(c2ccc(C3CN(C(=O)N4CC[C@@H]5OCC(=O)N[C@@H]5C4)C3)cc2)C1)C(F)(F)F (single isomer, unassigned) [Example 161, (4aR,8aS)-6-[3-[4-[3-[(1R or 1S)-2,2,2-Trifluoro-1-methyl-ethoxy]azetidin-1-yl]phenyl]azetidine-1-carbonyl]-4,4a,5,7,8,8a-hexahydropyrido[4,3-b][1,4]oxazin-3-one]",0.004
16,"CS(=O)(=O)c1cccc(C(c2cccnc2)C2CCN(C(=O)N3CC[C@@H]4OCC(=O)N[C@@H]4C3)CC2)c1 (single isomer, unassigned) [Example 175, (4aR,8aS)-6-[4-[(R or S)-(3-methylsulfonylphenyl)-(3-pyridyl)methyl]piperidine-1-carbonyl]-4,4a,5,7,8,8a-hexahydropyrido[4,3-b][1,4]oxazin-3-one]",0.115
17,"CS(=O)(=O)c1cccc(C(c2cccnc2)C2CCN(C(=O)N3CC[C@@H]4OCC(=O)N[C@@H]4C3)CC2)c1 (single isomer, unassigned) [Example 176, (4aR,8aS)-6-[4-[(R or S)-(3-methylsulfonylphenyl)-(3-pyridyl)methyl]piperidine-1-carbonyl]-4,4a,5,7,8,8a-hexahydropyrido[4,3-b][1,4]oxazin-3-one]",0.17
18,"CS(=O)(=O)c1cccc(C(c2ccncc2)C2CCN(C(=O)N3CC[C@@H]4OCC(=O)N[C@@H]4C3)CC2)c1 (single isomer, unassigned) [Example 177, (4aR,8aS)-6-[4-[(R or S)-(3-methylsulfonylphenyl)-(4-pyridyl)methyl]piperidine-1-carbonyl]-4,4a,5,7,8,8a-hexahydropyrido[4,3-b][1,4]oxazin-3-one]",0.428
19,"CS(=O)(=O)c1cccc(C(c2ccncc2)C2CCN(C(=O)N3CC[C@@H]4OCC(=O)N[C@@H]4C3)CC2)c1 (single isomer, unassigned) [Example 178, (4aR,8aS)-6-[4-[(S or R)-(3-methylsulfonylphenyl)-(4-pyridyl)methyl]piperidine-1-carbonyl]-4,4a,5,7,8,8a-hexahydropyrido[4,3-b][1,4]oxazin-3-one]",0.131
20,"CS(=O)(=O)c1cccc(C(c2ccccn2)C2CCN(C(=O)N3CC[C@@H]4OCC(=O)N[C@@H]4C3)CC2)c1 (single isomer, unassigned) [Example 189, (4aR,8aS)-6-[4-[(R or S)-(3-methylsulfonylphenyl)-(2-pyridyl)methyl]piperidine-1-carbonyl]-4,4a,5,7,8,8a-hexahydropyrido[4,3-b][1,4]oxazin-3-one]",0.068

# — patent US20230117324A1, “OXAZINE MONOACYLGLYCEROL LIPASE (MAGL) INHIBITORS” (Hoffmann-La Roche Inc., priority 2018, published 2023)
